In general, pIC50 refers to the IC50 on a negative log10 scale, so that one unit is a factor of ten. As a reminder, the pKd is the Kd on a negative log10 scale, so that one unit is a factor of ten.

This passage reports IC50, Activity and Kd results from ChEMBL document CHEMBL2046436, “Synthesis and structure-activity relationships of benzophenone-bearing diketopiperazine-type anti-microtubule agents” (Bioorg Med Chem, 2012).

The test system of experiment [1] is HT-29. The experiment is described as follows: Cytotoxicity against human HT-29 cells after 48 hrs by Resazurin assay. The settings on record: HT-29, 48 h.
The subject of experiment [2] is HeLa. The experiment is described as follows: Antimitotic activity in human HeLa cells assessed as change in dipolar spindle formation in metaphase at 1 nM after 6 hrs by DAPI staining-based immunofluorescence analysis. The class given is functional, cell-based.
Experiment [3] has as its system HeLa. The experiment is described as follows: Antimitotic activity in human HeLa cells assessed as microtubule network damage at interphase at 1 nM after 6 hrs by DAPI staining-based immunofluorescence analysis. It is filed as functional, cell-based.
Experiment [4] relates to HT-29. The experiment is described as follows: Cytotoxicity against human HT-29 cells after 48 hrs by resazurin assay. It is filed as functional, cell-based. The settings on record: HT-29, 48 h. For orientation: Alamar Blue is a resazurin reagent that responds to reducing activity.
In experiment [5] the test system is HeLa. The experiment is described as follows: Cytotoxicity against human HeLa cells after 48 hrs by WST-8 assay. The class given is functional, cell-based.
Experiment [6] deals with HeLa. The experiment is described as follows: Antimitotic activity in human HeLa cells assessed as disruption of interphase microtubule network at 10 nM after 6 hrs by DAPI staining-based immunofluorescence analysis. The class given is functional, cell-based.
In experiment [7] the test system is HeLa. The experiment is described as follows: Antimitotic activity in human HeLa cells assessed as multipolar spindle formation at 3 nM after 6 hrs by DAPI staining-based immunofluorescence analysis. It is filed as functional, cell-based.
The test system of experiment [8] is HeLa. The experiment is described as follows: Antimitotic activity in human HeLa cells assessed as disruption of interphase microtubule network at 3 nM after 6 hrs by DAPI staining-based immunofluorescence analysis. It is filed as functional, cell-based.
Another experiment deals with A549. The experiment is described as follows: Cytotoxicity against human A549 cells after 48 hrs by WST-8 assay. The class given is functional, cell-based. The settings on record: A549, 48 h. Background: Formazan colour is commonly taken as a measure of viable cells.
Experiment [9] is described as follows: Inhibition of bovine brain microtubule polymerization by spectrophotometric analysis. Also on record: species or system Bos taurus.
For a further experiment, the target named is tubulin (Sus scrofa). The experiment is described as follows: Binding affinity to porcine tubulin by spectrophotometric analysis.

Structures are written as SMILES. pIC50, pKd: −log10 of the molar value. Calls of active or inactive are those of the source. The rule behind the calls is not given here.

The molecule `COc1cc(C(=O)c2cccc(/C=c3\[nH]c(=O)/c(=C/c4nc[nH]c4C(C)(C)C)[nH]c3=O)c2)cc(OC)c1OC` gave a pIC50 in the experiment on HT-29 [1] of 5.60. With `CC(C)(C)c1[nH]cnc1/C=c1\[nH]c(=O)/c(=C/c2cccc(C(=O)c3ccc(Br)cc3)c2)[nH]c1=O`, in the experiment with HT-29 [1], the pIC50 was 8.40. On to `COc1ccc(/C=C\c2cc(OC)c(OC)c(OC)c2)cc1O` [COMBRETASTATIN A4], for which the result in the experiment on HeLa [2], with HeLa [3] and in the experiment on HeLa [8] was inactive. The pIC50 is 4.92 in the experiment on HT-29 [4], 8.66 with HeLa [5], 8.28 in the experiment on A549 and 6.26 in [9]. Further, the result in the experiment on HeLa [6] and with HeLa [7] was Active. On to `COc1cccc(C(=O)c2cccc(/C=c3\[nH]c(=O)/c(=C/c4nc[nH]c4C(C)(C)C)[nH]c3=O)c2)c1OC`, for which the pIC50 in the experiment on HT-29 [1] is 6.02. In the experiment on HT-29 [1], `CC(C)(C)c1[nH]cnc1/C=c1\[nH]c(=O)/c(=C/c2cccc(C(=O)c3ccc(C(F)(F)F)cc3)c2)[nH]c1=O` showed a pIC50 of 6.83. In the experiment on HT-29 [4], `CC(C)(C)c1[nH]cnc1/C=c1\[nH]c(=O)/c(=C/c2ccc3c(c2)C(=O)c2ccccc2-3)[nH]c1=O` gave a pIC50 of 5.55. `CC(C)(C)c1[nH]cnc1/C=c1\[nH]c(=O)/c(=C/c2cccc(C(=O)c3ccc(Cl)cc3)c2)[nH]c1=O`: the pIC50 in the experiment with HT-29 [1] is 8.96. Regarding `CC(C)(C)c1[nH]cnc1/C=c1\[nH]c(=O)/c(=C/c2cccc(C(=O)c3ccc(F)cc3)c2)[nH]c1=O`, the pKd on tubulin (Sus scrofa) was 7.14. Further, the outcome with HeLa [2] and in the experiment on HeLa [3] was inactive. Also, the pIC50 in the experiment with HeLa [5] was 8.77; with HT-29 [1] it was 9.30; with A549, 9.10; in experiment [9], 6.05. Moreover, the result in the experiment with HeLa [6], with HeLa [7] and in the experiment with HeLa [8] was Active. As to `CC(C)(C)c1[nH]cnc1/C=c1\[nH]c(=O)/c(=C/c2ccc(C(=O)c3ccccc3)cc2)[nH]c1=O`, in the experiment on HT-29 [1], the pIC50 was 5.92. With `COc1ccccc1C(=O)c1cccc(/C=c2\[nH]c(=O)/c(=C/c3nc[nH]c3C(C)(C)C)[nH]c2=O)c1`, in the experiment with HT-29 [1], the pIC50 is 6.44. `CC(C)(C)c1[nH]cnc1/C=c1\[nH]c(=O)/c(=C/c2cccc(C(=O)c3ccccc3Cl)c2)[nH]c1=O` showed a pIC50 in the experiment with HT-29 [1] of 8.22.

Regarding `COc1cccc(C(=O)c2cccc(/C=c3\[nH]c(=O)/c(=C/c4nc[nH]c4C(C)(C)C)[nH]c3=O)c2)c1`, the pIC50 in the experiment on HT-29 [1] is 7.41. On the same count and under the same terms, with `CC(C)(C)c1[nH]cnc1/C=c1\[nH]c(=O)/c(=C/c2cccc(C(=O)c3ccccc3F)c2)[nH]c1=O` the figure was 8.52; with `COc1ccc(C(=O)c2cccc(/C=c3\[nH]c(=O)/c(=C/c4nc[nH]c4C(C)(C)C)[nH]c3=O)c2)cc1OC`, 5.14; with `COc1ccc(C(=O)c2cccc(/C=c3\[nH]c(=O)/c(=C/c4nc[nH]c4C(C)(C)C)[nH]c3=O)c2)c(OC)c1`, 5.74. Molecule `CC(C)(C)c1[nH]cnc1/C=c1\[nH]c(=O)/c(=C/c2cccc(C(O)c3ccccc3)c2)[nH]c1=O` (centres undefined) had a pIC50 with HT-29 [1] of 7.39. The same measure, in the same setting: with `CC(C)(C)c1[nH]cnc1/C=c1\[nH]c(=O)/c(=C/c2cccc(C(=O)c3cccc(Cl)c3)c2)[nH]c1=O` the figure was 8.70. Turning to `COc1ccc(C(=O)c2cccc(/C=c3\[nH]c(=O)/c(=C/c4nc[nH]c4C(C)(C)C)[nH]c3=O)c2)cc1`, in the experiment with HT-29 [1], the pIC50 was 8.42. Against the preceding molecule, the pIC50 is 0.28 log units lower. For the molecule `COc1cc2c(c(OC)c1OC)-c1ccc(OC)c(=O)cc1[C@@H](NC(C)=O)CC2` [COLCHICINE], the pIC50 in the experiment on HeLa [5] was 7.69; with HT-29 [1], 8.03; in the experiment on A549 it was 7.30. `CC(C)(C)c1[nH]cnc1/C=c1\[nH]c(=O)/c(=C/c2cccc(C(=O)c3cccc(F)c3)c2)[nH]c1=O` showed a pIC50 in the experiment on HT-29 [1] of 9.22.
